Results as given in ChEMBL document CHEMBL1157998, “Koninginin G, a new metabolite from trichoderma aureoviride” (1999).

Tested on: Triticum aestivum
Assay: Growth inhibition of etiolated wheat coleoptiles at 1000 uM relative to control
Format: functional
Conditions: read-out: GI

| Compound | inhibition of growth at 1000 µM [%] |
| --- | --- |
| CCCCCc1cccc(=O)o1 | 100 |
| CCCCCC[C@H](O)[C@@H]1CC[C@@H]2[C@H](O)CC[C@H](O)[C@@]2(O)O1 [KONINGININ G] | 56 |
